Laboratory results from US7371379B2, “Dosages for treatment with anti-ErbB2 antibodies” (Genentech, Inc., priority 1999, dated 2008).

How the values were obtained:
[1] = system: ErbB2-overexpressing metastatic breast cancer; experiment: clinical study of chemotherapy with or without HERCEPTIN (Example 1); type: in vivo, human
From the text: Eligibility Criteria Patients had to fulfill all of the following criteria to be eligible for study admission: • Metastatic breast cancer • Overexpression of the ErbB2 (HER2) oncogene (2+ to 3+ as determined by immunohistochemistry or fluorescence in situ hybridization (FISH). [Tumor expression of ErbB2 can be determined by immunohistochemical analysis, as previously described (Slamon et al., [1987] and [1989], supra), of a set of thin sections prepared from the patient's paraffin-archived tumor blocks. The primary detecting antibody used is murine 4D5 MAb, which has the same CDRs as the humanized antibody used for the treatment.
Beginning on day 7, patients received weekly administration of 2 mg/kg antibody (i.v.) over a 90-minute period.
The patients received one of two chemotherapy regimens for a minimum of six cycles, provided their disease was not progressing: a) cyclophosphamide and doxorubicin or epirubicin (AC), if patients have not received anthracycline therapy in the adjuvant setting, or b) paclitaxel (T, TAXOL®), if patients have received any anthracycline therapy in the adjuvant setting. […] Subsequent doses of the antibody were given immediately before chemotherapy administration, if the initial dose of the antibody was well tolerated. If the first dose of the antibody was not well tolerated, subsequent infusions continued to precede chemotherapy administration by 24 hours. Patients were permitted to continue receiving chemotherapy beyond six cycles if, in the opinion of the treating physician, they were continuing to receive treatment benefit.
Cyclophosphamide (600 mg/m^2) was given either by iv push over a minimum period of 3 minutes or by infusion over a maximum period of 2 hours.
Doxorubicin (60 mg/m^2) or epirubicin (75 mg/m^2) were given either by slow iv push over a minimum period of 3-5 minutes or by infusion over a maximum period of 2 hours, according to institutional protocol.
All patients receiving paclitaxel were premedicated with dexamethasone (or its equivalent) 20 mg×2, administered orally 12 and 6 hours prior to paclitaxel; diphenhydramine (or its equivalent) 50 mg, iv, administered 30 minutes prior to paclitaxel, and […] (or another H2 blocker) 300 mg, iv, administered 30 minutes prior to paclitaxel.
Progressive disease also includes those instances when new lesions have appeared.
Complete Response Disappearance of all radiographically and/or visually apparent tumor for a minimum of 4 weeks. Skin and chest wall complete responses had to be confirmed by biopsy. […]
Time to disease progression (TTP) was calculated from the beginning of therapy to progression. Confidence limits for response rates were calculated using the exact method for a single proportion. […]

[2] = system: BT-474M1; experiment: nude mouse xenograft tumor volume, i.v. bolus versus s.c. bolus (Example 4); type: in vivo; conditions: Group 1, IV Control
Method: (§1) This study was set up as disclosed herein in Example 3 for the comparison of intravenous bolus and subcutaneous infusion delivery. A sustained release estrogen implant was inserted subcutaneously one day before tumor cell innoculation as described in Example 3. Six days after tumor cell innoculation, the initial tumor measurement was performed. […] Animals were dosed once weekly for 4 weeks.
(§2) The mice were treated according to the information in Table 4 and using the techniques disclosed in Example 3. […] The control E25 antibody serum concentration was determined according to standard immunoassay techniques.
For this study, efficacy was measured as a decrease in tumor volume. Tumor volume was measured twice weekly.

[3] = system: BT-474M1; experiment: nude mouse xenograft tumor volume, i.v. bolus versus s.c. infusion (Example 3); type: in vivo; conditions: control s.c. infusion
Method: A study in a nude mouse xenograft model, which incorporates a human breast cancer cell line that naturally overexpresses the HER2 gene (BT-474M1, derived from BT-474 cells, ATCC Accession number HTB-20), comparing tumor volume as a function of i.v. bolus versus s.c. infusion was performed as follows. In the first study athymic nude nu nu 7-9 week old female mice were obtained from Taconic Inc (Germantown, N.Y.). To initiate tumor development, each mouse was inoculated subcutaneously with 3×10^6 BT474M1 cells suspended in Matrigel™. When tumor nodules reached a volume of approximately 100 mm^3, animals were randomized to 4 treatment groups.
(§3) Animals were exposed to estrogen by subcutaneous sustained release estrogen pellet 9 days before the start of dosing to promote growth of grafted tumor cells. The animals were inoculated with the BT474M 1 cells 8 days before the beginning of treatment and tumors were allowed to grow. […] The study groups were treated until day 35. […] Tumor volumes were measured two days before dosing began and twice per week from day 6 to day 35 in the study for which data is tabulated below. Tumors were measured in three dimensions and volumes were expressed in mm^3. Efficacy was determined by a statistical comparison (ANOVA) of tumor volumes of test animals relative to untreated control animals.

[4] = serum antibody concentration in xenograft mice (Example 4); type: in vivo, mouse; conditions: Group 1, IV, MD 4 mg/kg
Method: as §1, §2

[5] = serum antibody concentration in xenograft mice (Example 3); type: in vivo, mouse; conditions: control s.c. infusion
Method: as §3

[6] = median follow-up 10.5 months, H 4 mg/kg then 2 mg/kg weekly i.v.

In the case of `CC(=O)O[C@H]1C(=O)[C@@]2(C)[C@H]([C@H](OC(=O)c3ccccc3)[C@]3(O)C[C@H](OC(=O)[C@H](O)[C@@H](NC(=O)c4ccccc4)c4ccccc4)C(C)=C1C3(C)C)[C@]1(OC(C)=O)CO[C@@H]1C[C@@H]2O` [T, paclitaxel], the “syndrome of myocardial dysfunction” value ([1]; Grade ¾) is reported as 0%, the “AE(%) overall severe adverse events” value ([1]; median follow-up 10.5 months) is reported as 59% and the “RR(%)” value [1, 6] is reported as 25.0%. The “TTP(months)” value [1, 6] was 4.2 months.

In the case of “rhu MAb E25: nonrelevant antibody E25 (non-specific for HER2 receptor, but a member of the monoclonal IgG class)”, the “Tumor Vol. Day 28, mm^3” value [2] is reported as 1530 mm^3, the “Tumor Vol. Day 31, mm^3” value [2] is reported as 1630 mm^3 and the “Tumor Vol. Day 6, mm^3” value ([2]; LD 8, MD 4 mg/kg/week, initial measurement before first dose) is reported as 321 mm^3. For the same molecule, the “Day 6-Day 31 Area Under Curve Tumor Vol., mm^3” value ([2]; Day 17 excluded) was 13600 mm^3, the “Tumor Volume (area under curve) Day 6-Day 35” value [3] was 5650 ± 4700 and the “Tumor Volume (mm^3), Day 35” value ([3]; IV LD 2.20 mg/kg, infusate […]) was 764 ± 700 mm^3. The “Serum Concentration, Mean” value ([4]; Day 0) was 0 ng/mL, the “Serum Concentration, Mean” value ([4]; Day 7) was 25900 ng/mL and the “Serum Concentration, Mean” value ([4]; Day 14) was 34600 ng/mL. The “Serum Concentration, Mean” value ([4]; Day 21) was 38500 ng/mL and the “HERCEPTIN Serum Conc. (μg/ml), Day 27” value [5] was 4.16 ± 1.94 µg/mL.
